{"source": "patent US20190313678A1", "about": "“SUGAR-DIPEPTIDE CONJUGATES AS FLAVOR MOLECULES” (NESTEC S.A., priority 2016, published 2019)", "key": {"[1]": {"assay": "Sensory evaluation of the compounds in water", "settings": "2 g/L in water; 12 panelists", "procedure": "The compounds ornithine, ornithyl-β-alanine, 1-deoxy-D-fructosyl-N-ornithine, 1-deoxy-D-fructosyl-N-ornithyl-β-alanine and 1-deoxy-2-pentulofuranos-1-yl-Ornithine (Rib-Orn) were each dissolved and diluted in water in a final concentration of 2 g/L. The solutions were then evaluated by 12 panelists, which were previously screened and selected for their sensory abilities."}, "[2]": {"assay": "Sensory evaluation of the compounds in a chicken soup base", "settings": "for flavor impact in chicken soup base versus reference soup: ANOVA/LSD, alpha 5%; for Sensory inpact on chicken soup: chicken soup base, compounds added at 2 and 0.25 g/L, 12 panelists", "procedure": "Chicken soups were prepared by dissolving 6 g chicken base powder (detailed recipe shown in Table 1), 1 g monosodium glutamate and 1 g of sodium chloride in 500 mL hot water. 1-Deoxy-D-fructosyl-N-ornithyl-β-alanine, N-ornithyl-β-alanine, 1-deoxy-D-fructosyl-N-ornithine or alternatively 1-deoxy-2-pentulofuranos-1-yl-Ornithine (Rib-Orn) were then added separately at 2 and 0.25 g/L final concentrations.\nThe sensory evaluation was carried out by 12 panelists, previously screened for their sensory abilities. The panelists assessed a maximum of 6 samples per session. They had Vittel water and crackers as mouth cleansers. In all the cases, the panelists were instructed to evaluate the samples for the following attributes: overall flavor persistency, meaty, grilled/popcorn-like, bread-like, sweet, bitter, and salty. The samples were coded with random 3-digit numbers according to a balanced presentation design, heated at approximately 65° C. and then presented in 40 ml brown plastic containers and under red light to minimize appearance bias (the serving was approximately 25 ml per sample).\nThe following statistical tests were used to analyze the sensory raw data: First, the Analysis of Variance (ANOVA) with two factors, products (fixed factor) and subject (random factor) was computed in order to determine if there was any difference among samples. The limit of significance (alpha risk) was set at 5%. […] The limit of significance (alpha risk) was set at 5%."}, "[3]": {"assay": "Comparison of soup bases containing Fru-orn versus the mixture of glucose and ornithine", "settings": "2 g/L (6.82 mmol/L), 6 panelists", "procedure": "A first soup was prepared by adding 2 g/L (6.82 mmol/L) 1-deoxy-D-fructosyl-N-ornithine in the soup base described above. A second soup was prepared by adding same molar concentration of glucose and ornithine. The solutions were then evaluated by 6 panelists following the same procedure than described above."}, "[4]": {"assay": "Tomato soups with added compound (seasoning compositions)", "settings": "2 g/L in tomato soup", "procedure": "Tomato soups can be prepared by dissolving 6 g tomato base powder as can be obtained in the commerce in 500 mL hot water. 1-deoxy-D-fructosyl-N-ornithine or alternatively 1-Deoxy-D-fructosyl-N-ornithyl-β-alanine can be added at a concentration of 2 g/L to the soups in order to improve their taste and flavor profile."}, "[5]": {"settings": "cited from earlier work; for orosensation effect of subthreshold concentrations: together with L-glutamic acid and sodium and/or potassium ions, Dunkel and Hofmann 2009"}}, "note": "Entries after “also recorded” stand apart in the source; their conditions may differ."}
{"molecule": "N[C@@H](CCCNCC1(O)OCC(O)C(O)C1O)C(=O)O", "note": "(stereo partly drawn) [Fru-Orn, 1-deoxy-D-fructosyl-N-ornithine]", "values": [{"measurement": "Flavour property in water (2 g/L)", "setting": "[1]", "result": "salty"}, {"measurement": "flavor impact in chicken soup base versus reference soup", "setting": "[2]; 0.25 g/L", "result": "bread flavors were significantly perceived"}, {"measurement": "flavor impact in chicken soup base versus reference soup", "setting": "[2]; 2 g/L", "result": "grilled meat flavor and saltiness were significantly enhanced"}, {"measurement": "Sensory inpact on chicken soup", "setting": "[2]", "result": "grilled/popcorn,; also recorded: bread, saltiness"}, {"measurement": "saltiness versus soup with same molar concentration of glucose and ornithine", "setting": "[3]; tasted with nose-clip", "result": "more salty"}, {"measurement": "chicken flavor versus soup with same molar concentration of glucose and ornithine", "setting": "[3]; tasted without nose-clip", "result": "greater chicken flavor"}, {"measurement": "grilled savory flavor of tomato soup versus reference soup", "setting": "[4]", "result": "more pronounced grilled savory flavor"}, {"measurement": "perceived saltiness of tomato soup versus reference soup", "setting": "[4]", "result": "slightly more salty"}]}
{"molecule": "NCCC(=O)N[C@@H](Cc1cnc[nH]1)C(=O)O", "note": "[L-carnosine]", "values": [{"measurement": "orosensation effect of subthreshold concentrations", "setting": "[5]", "result": "enhance the typical thick-sour orosensation and white-meaty character"}]}
{"molecule": "NCCC(=O)NCC(=O)O", "note": "[β-alanylglycine]", "values": [{"measurement": "orosensation effect of subthreshold concentrations", "setting": "[5]", "result": "enhance the typical thick-sour orosensation and white-meaty character"}]}
{"molecule": "N[C@@H](CCCNCC1(O)OC[C@@H](O)[C@@H](O)[C@@H]1O)C(=O)NCCC(=O)O", "note": "(stereo partly drawn) [Fru-Orn-βala, 1-deoxy-D-fructosyl-N-ornithyl-β-alanine]", "values": [{"measurement": "Flavour property in water (2 g/L)", "setting": "[1]", "result": "sweet, bread"}, {"measurement": "grilled and bread attributes of chicken soup versus soup with orn-ala", "setting": "[2]; 2 g/L each", "result": "enhanced significantly; also recorded: increases the desired grilled meat and bread flavor note"}, {"measurement": "overall flavor persistency of chicken soup versus soup with orn-ala", "setting": "[2]; 2 g/L each", "result": "significantly different"}, {"measurement": "perceived bitterness of chicken soup versus soup with orn-ala", "setting": "[2]; 2 g/L each", "result": "significantly decreasing; also recorded: reducing overall bitterness"}, {"measurement": "Sensory inpact on chicken soup", "setting": "[2]", "result": "grilled/popcorn,; also recorded: bread, saltiness"}, {"measurement": "grilled savory flavor of tomato soup versus reference soup", "setting": "[4]", "result": "more pronounced grilled savory flavor"}, {"measurement": "perceived saltiness of tomato soup versus reference soup", "setting": "[4]", "result": "slightly more salty"}]}
{"molecule": "NCCC[C@H](N)C(=O)NCCS(=O)(=O)O", "note": "[L-ornithinyltaurine]", "values": [{"measurement": "bitter masking effects against potassium salts", "setting": "[5]; J. P. Ley 2008", "result": "bitter masking effects"}, {"measurement": "taste produced", "setting": "[5]; Tamura et al. 1989", "result": "salty taste"}]}
{"molecule": "NCCC[C@H](N)C(=O)NCCC(=O)O", "note": "[Orn-ala, N-ornithyl-β-alanine, reference compound]", "values": [{"measurement": "Flavour property in water (2 g/L)", "setting": "[1]", "result": "astringent"}, {"measurement": "flavor impact in chicken soup base versus reference soup", "setting": "[2]; 2 g/L", "result": "no statistically significant differences"}, {"measurement": "Sensory inpact on chicken soup", "setting": "[2]", "result": "none"}, {"measurement": "bitter masking effects against potassium salts", "setting": "[5]; J. P. Ley 2008", "result": "bitter masking effects"}]}
{"molecule": "Cn1cncc1C[C@H](NC(=O)CCN)C(=O)O", "note": "[L-anserine]", "values": [{"measurement": "orosensation effect of subthreshold concentrations", "setting": "[5]", "result": "enhance the typical thick-sour orosensation and white-meaty character"}]}
{"molecule": "N[C@@H](CCCNCC1(O)OC[C@@H](O)[C@H]1O)C(=O)O", "note": "(stereo partly shown) [Rib-Orn, 1-deoxy-2-pentulofuranos-1-yl-ornithine]", "values": [{"measurement": "Flavour property in water (2 g/L)", "setting": "[1]", "result": "astringent, sour, metallic and slightly sweet; also recorded: Astringent,"}, {"measurement": "flavor impact in chicken soup base versus reference soup", "setting": "[2]; 0.25 g/L", "result": "both baked bread flavor and umami taste were significantly enhanced"}, {"measurement": "Sensory inpact on chicken soup", "setting": "[2]", "result": "Grilled/bread,; also recorded: umami"}]}
{"molecule": "NCCC[C@H](N)C(=O)O", "note": "[Orn, L-ornithine]", "values": [{"measurement": "off-taste inhibition in combination with bitter branched chain amino acids", "setting": "[5]; J. P. Ley 2008", "result": "off-taste inhibitor"}]}
